These results are taken from patent US9822368B2, “Modulators of intracellular chloride concentration for treating down syndrome” (Fondazione Istituto Italiano di Tecnologia, priority 2013, dated 2017).

Experiment [1] has as its system children with Down syndrome. To be noted: even at doses associated with adverse effects; cited from earlier work.
Experiment [2] has as its system hippocampal CA3 pyramidal neurons. The experiment can be described thus: Whole-cell voltage clamp recordings of spontaneous excitatory postsynaptic currents (sEPSCs) in acute brain slices. Format: cell-based, Ts65Dn mice. To be noted: acute bumetanide application, P15 Ts65Dn slices, -70 mV. The source says: FIG. 1 represents the effect of acute bumetanide on the spontaneous activity in Ts65Dn mice at P15 compared to control values. Whole-cell voltage clamp recordings of spontaneous excitatory postsynaptic currents (sEPSCs) at −70 mV from individual hippocampal CA3 pyramidal neurons in acute […] brain slices from P15 Ts65Dn. (A) Representative traces of sEPSCs recorded from Ts65Dn mice in control and in the presence of bumetanide. (B) Average values of frequency of sEPSCs recorded in control mice (n=9), in Ts65Dn mice (n=9) **p<0.006 (two-tails two-samples t-test) and with bumetanide application (n=9), ***p<0.001 (two-tails paired t-test).

In a further experiment the test system is CA1 pyramidal neurons. Nature of the experiment: Cell-attached recording of spontaneous spiking activity in acute hippocampal slices. It is filed as cell-based, Ts65Dn mice. To be noted: Ts65Dn neurons.
Experiment [3] relates to CA1 hippocampal pyramidal neurons. Nature of the experiment: Gramicidin perforated patch-clamp of GABA currents (reversal potential EC1) in hippocampal slices. Format: cell-based, Ts65Dn and WT mice. As to conditions: for EC1 values: 20 min after bath application of bumetanide (10 μM). From the text: The vertical dotted lines indicate the value of the reversal potential on the x axis. Insets, sample traces of GABA-induced currents at different holding potentials. Scale bars: vertical, 50 pA; horizontal, 50 ms. […] Average resting potentials (dotted lines) were not different in Ts65Dn and WT neurons.
For orientation: In patch-clamp work, channel activity is measured electrically.

The subject of a further experiment is hippocampal CA3CA1 LTP. Nature of the experiment: Hippocampal CA3-CA1 LTP (fEPSP slope after TBS) in hippocampal slices. To be noted: bath application of bumetanide (10 μM), Ts65Dn slices, last 5 min of recordings, 60 min after TBS. It is filed as cell-based, Ts65Dn mice. As to the method: FIG. 4 represents the effect of bumetanide bath application on hippocampal CA3CA1 LTP in Ts65Dn mice. […] Numbers in parentheses: number of animals utilized. Insets: Average of 10 fEPSP traces recorded for each experimental group before (continuous line) and 60 min after TBS (dashed line). Stimulus artefacts have been deleted from traces for clarity. Scale bars: vertical, 1 mV; horizontal, 10 ms.

Experiment [4] concerns Ts65Dn mice. Nature of the experiment: Contextual fear conditioning test. It is filed as in vivo. As to conditions: for associative memory (contextual fear conditioning): Ts65Dn mice. The source says:
(§1) FIG. 5 represents the effect of bumetanide systemic treatment on cognitive functions in behavioral tasks in Ts65Dn mice. […] (B) Top, schematic representation of the contextual fear conditioning test. […] (C) Top, schematic representation of the object location test. […] (D) Top, schematic representation of the novel object recognition task. […] For all panels, histograms represent average±SEM, whereas circles indicate data from single animals.

The test system of experiment [5] is Ts65Dn mice. The experiment can be described thus: Object location test. It is filed as in vivo.
Text: as §1

Experiment [6] deals with Ts65Dn mice. Nature of the experiment: Novel object recognition task. It is filed as in vivo. As to conditions: for object novelty discrimination (novel object recognition task): Ts65Dn mice.
Text: as §1

The mark [7] stands for this setting: summary statement, duration not stated.

Entries after “also recorded” stand apart in the source; their conditions may differ.

For `NC(=O)CN1CCCC1=O` [piracetam], the “cognitive and behavioral measures” value in experiment [1] is “neither cognitive nor behavioral measures demonstrated improvement”.
As for `CCCCNc1cc(C(=O)O)cc(S(N)(=O)=O)c1Oc1ccccc1` [bumetanide], the “ongoing excitatory glutamatergic activity (frequency of sEPSCs)” value in experiment [2] is given as “reduces elevated glutamatergic activity”. Moreover, the “spike frequency increase induced by GABA” value in the experiment on CA1 pyramidal neurons (co-treatment GABA and bumetanide (10 μM)) is reported as “reverted this effect”. Besides, the results for the EC1 values result in experiment [3] (Ts65Dn cells) and in experiment [3] (WT mice) were “rescued the depolarized EC1” and “unaltered”, respectively. Besides, the “polarity of the actions of GABA” value in experiment [3] (Ts65Dn mice, summary statement) is listed as “restores LTP, hyperpolarizing GABA actions”. For the same compound, the “LTP (increase in the slope of fEPSP)” value in the experiment on hippocampal CA3CA1 LTP is “restores LTP; also recorded: rescued this deficit”. Also, the “associative memory (contextual fear conditioning)” value with Ts65Dn mice [4] (bumetanide systemic treatment for 1 week (1W)) and with Ts65Dn mice [4] (bumetanide systemic treatment for 4 weeks (4W)) was “rescued memory deficit” throughout. In addition, the memory tests result with Ts65Dn mice [4] (setting [7]) is “rescues the behavioral deficient novel object recognition and memory tests”. Moreover, the “spatial memory (object location test)” value in the experiment on Ts65Dn mice [5] (after 1 week of treatment) and in the experiment on Ts65Dn mice [5] (after 4 weeks of treatment) was “rescued spatial memory deficits” throughout. In addition, the “novel object recognition test” value in the experiment with Ts65Dn mice [6] (setting [7]) is “rescues the behavioral deficient novel object recognition”. In addition, the “object novelty discrimination (novel object recognition task)” value in the experiment on Ts65Dn mice [6] (treatment for 1 week) and in the experiment with Ts65Dn mice [6] (treatment for 4 weeks) was “restored object novelty discrimination” each time.
Turning to `NCCCC(=O)O` [GABA], in the experiment on CA1 pyramidal neurons (bath application of GABA (10 μM), 10-12 weeks of age), the spike frequency result was “increased spike frequency”.
